Article PMC5460925, “Degradation Paradigm of the Gut Hormone, Pancreatic Polypeptide, by Hepatic and Renal Peptidases” (Endocrinology, 2017)
Blank lines part the entries; values can stand above or below the compound they belong to. Where no end group is shown, it is not given here.

Experiments:
[1] = test system: food intake in C57/BL6 mice; experiment: Acute feeding studies (food intake) in overnight-fasted mice; type: in vivo, mouse; details: for inhibition of food intake over 24 hours vs saline: 0 to 24 hours
Method: All animal procedures were approved by the British Home Office, under the United Kingdom Animal (Scientific Procedures) Act 1986 (project license, 70/6402). Adult male C57/BL6 mice (Harlan, Wyton, UK) weighing 20 to 25 g were maintained in individual cages under controlled temperature (21°C to 23°C) and light (12-hour light/dark cycle, with lights on at 7:00 AM). The mice had ad libitum access to water and normal chow RM1 (Special Diet Services, Devon, UK), unless stated otherwise. For acclimatization, the mice were regularly handled and given 2 sham subcutaneous (SC) and/or intraperitoneal (IP) injections of saline. Before each feeding study, the mice were fasted overnight, and the injections were performed during the early light phase (8:00 to 10:00 AM). The mice were stratified by body weight. To investigate the anorectic effects of DPPIV-resistant analogs, the mice were stratified into treatment groups and administered a SC injection (maximum volume, 100 µL) of vehicle, PP, PP3-36, PP2-36, or PP-Ala0 (n = […]). Food intake was measured at 1, 2, 4, and 8 hours after injection to compare the peptides with short half-lives (PP and its endogenous degradation product, PP3-36) and, in a separate experiment, at 24 hours after injection for peptides with modifications (PP-Ala0 and PP2-36, using PP as the comparator). A PP analog with global modifications for enzyme resistance (PP-x) was also investigated and administered as a SC injection (maximum volume, 100 µL) at a high and low dose (n = 9). Food intake was measured at 1, 2, 4, and 8 hours after injection. […] This dose of phosphoramidon was sufficient to inhibit NEP activity ([30]). Food intake was measured at 1, 2, 4, 8, 24, and 48 hours after injection.

in vivo = experiment: in vivo; design: species or system mouse; details: sc
Method: The mice were divided into four treatment groups according to body weight. A protocol similar to that used for the phosphoramidon feeding study was used, with an IP injection, followed by a SC injection 15 minutes later (maximum volume, 50 µL for each injection) of phosphoramidon (0, 7, 20, and 60 mg/kg IP), followed by PP (150 nmol/kg SC in saline; n = 4 to 6; […]). […] Additional mice (n = 2) underwent overnight fasting and were culled at 0 minutes after injection of the control substances (saline SC and vehicle IP) for measurement of the baseline levels of circulating PP. The blood was immediately removed via cardiac puncture and centrifuged at 6000 rpm (Sigma 3K18; 12348 rotor; Sigma-Aldrich) for 10 minutes. The plasma was stored at −20°C until analysis. The plasma samples were assayed using an established in-house PP RIA ([8]). The anti-PP antibody was elevated in rabbit against human PP and recognized PP (and other truncated forms) but not in other PP-fold peptides or gastrointestinal peptides. ^125I-PP was prepared using the iodogen method and purified using HPLC. The assay was performed in duplicate in a total volume of 700 µL of 0.06 M phosphate buffer (pH 7.35) containing 0.3% bovine serum albumin. The samples were incubated for 3 days at 4°C before separation of free and antibody-bound ^125I-PP using dextran-coated charcoal. The sensitivity was ≤5 fmol/tube. The intra-assay coefficient of variation was 6%.

mouse Y4 receptor = target: T1, mouse Y4 receptor (Mus musculus, UniProt Q61041); experiment: Y4 receptor binding assay (125I-PP competition)
T1 construct: expressed in transfected cells; host or cells: HEK293
Method: Transfected HEK293 cells overexpressing the mouse Y4 receptor were prepared and binding assays performed as previously described ([29]). Isolated cell membranes (protein concentration, 1 to 2 µg/mL) were incubated for 90 minutes in siliconized polypropylene tubes together with ^125I-PP [1 kBq (100 pM)] and a dose response of unlabeled competing peptides at 4°C in binding buffer [20 mM HEPES (pH 7.4), 1 mM MgCl2, 5 mM CaCl2, 0.1% bovine serum albumin, and protease inhibitors (0.2 mM phenylmethylsulfonyl fluoride, 0.1 mM Diprotin A, and 10 µM phosphoramidon ( all from Sigma-Aldrich)] in a final assay volume of 0.5 mL. PP was iodinated as previously described ([8]) using ^125I from GE Healthcare Life Sciences (Amersham, UK). Pelleted membranes were washed with 5 mL ice-cold assay buffer, and the membranes were centrifuged at 15,874g for 3 minutes at 4°C, as described, to separate bound and free label. Bound radioactivity was measured using a γ-counter (NE 1600; NE Technology Ltd, Reading, UK). Specific binding was calculated as the difference between the amount of ^125I-PP bound in the absence (total binding) and presence of 5 μM unlabeled competing peptide (nonsaturable binding). All curves were performed with points in triplicate. Half maximal inhibitory concentration values were calculated using Prism, version 5.01 (GraphPad Software Inc., San Diego, CA) using a three-parameter logistic equation for the nonlinear regression fit: Y = bottom + (top − bottom)/1 + 10^(LogEC50 − X), where EC50 is the half maximal effective concentration.

[2] = 150 nmol/kg SC, overnight-fasted C57/BL6 mice, n = 7

T1 sequence (Q61041 whole entry): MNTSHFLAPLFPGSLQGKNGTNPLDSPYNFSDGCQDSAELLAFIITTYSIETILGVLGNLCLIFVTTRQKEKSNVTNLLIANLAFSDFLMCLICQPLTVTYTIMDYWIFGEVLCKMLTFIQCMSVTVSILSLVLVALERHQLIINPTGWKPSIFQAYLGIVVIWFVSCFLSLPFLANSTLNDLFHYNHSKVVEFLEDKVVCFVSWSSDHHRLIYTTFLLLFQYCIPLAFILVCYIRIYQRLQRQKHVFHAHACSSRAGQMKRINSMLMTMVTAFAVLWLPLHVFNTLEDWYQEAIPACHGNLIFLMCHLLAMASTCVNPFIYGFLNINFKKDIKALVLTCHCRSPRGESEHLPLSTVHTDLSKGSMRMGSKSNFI

Compound: CC[C@H](C)[C@H](NC(=O)[C@H](Cc1ccc(O)cc1)NC(=O)[C@H](CCCNC(=N)N)NC(=O)[C@H](CCCNC(=N)N)NC(=O)[C@H](CC(C)C)NC(=O)[C@H](CC(=O)O)NC(=O)[C@H](C)NC(=O)[C@H](C)NC(=O)[C@H](Cc1ccc(O)cc1)NC(=O)[C@H](CCC(N)=O)NC(=O)[C@H](C)NC(=O)[C@H](CCSC)NC(=O)[C@H](CCC(N)=O)NC(=O)[C@H](CCC(=O)O)NC(=O)[C@@H]1CCCN1C(=O)[C@@H](NC(=O)[C@H](C)NC(=O)[C@H](CC(N)=O)NC(=O)[C@H](CC(=O)O)NC(=O)CNC(=O)[C@@H]1CCCN1C(=O)[C@H](Cc1ccc(O)cc1)NC(=O)[C@@H](NC(=O)[C@@H]1CCCN1C(=O)[C@H](CCC(=O)O)NC(=O)[C@H](CC(C)C)NC(=O)[C@@H]1CCCN1)C(C)C)[C@@H](C)O)C(=O)N[C@@H](CC(N)=O)C(=O)N[C@@H](CCSC)C(=O)N[C@@H](CC(C)C)C(=O)N[C@H](C(=O)N[C@@H](CCCNC(=N)N)C(=O)N1CCC[C@H]1C(=O)N[C@@H](CCCNC(=N)N)C(=O)N[C@@H](Cc1ccc(O)cc1)C(N)=O)[C@@H](C)O [PP2-36]
inhibition of food intake over 24 hours vs saline [1, 2]: statistically significant inhibition of food intake

plasma level at 120 minutes relative to PP (in vivo; mouse): almost threefold | level at time molar at 0.5 h (in vivo; mouse, 100 nmol/kg, plasma peptide level at 30 minutes after injection): 26.9 nM | level at time molar at 2 h (in vivo; mouse, 100 nmol/kg, plasma peptide level at 120 minutes after injection): 5.81 ± 0.215 nM
Compound: GAPLEPTYPGDNATPEQLARYAAALRRYINKLTRPRY-NH2 (C-terminus assumed) [PP-x]
cumulative food intake at 8 hours (0- to 8-hour interval), low dose ([1]; 25 nmol/kg SC, overnight-fasted C57BL/6 mice, n = 9, mean ± SEM): 1.98 ± 0.14 g | food intake at 8 hours, high dose ([1]; 150 nmol/kg SC, overnight-fasted C57BL/6 mice, n = 9, mean ± SEM): 1.04 ± 0.09 g

Compound: N[C@@H](CC(=O)N1CCn2c(nnc2C(F)(F)F)C1)Cc1cc(F)c(F)cc1F [sitagliptin]
effect on food intake, inhibitor alone ([1]; sitagliptin 6 mg/kg IP then saline SC, any interval up to 8 hours): did not cause a substantial reduction of food intake

Compound: CC(C)C[C@H](NP(=O)(O)O[C@@H]1O[C@@H](C)[C@H](O)[C@@H](O)[C@H]1O)C(=O)N[C@@H](Cc1c[nH]c2ccccc12)C(=O)O [phosphoramidon]
effect on food intake, inhibitor alone ([1]; phosphoramidon 5 mg/kg IP then saline SC, any interval up to 48 hours): did not cause a substantial reduction of food intake

affinity to the Y4 receptor compared with PP (mouse Y4 receptor; DPPIV degradation product compared with PP, statement in discussion): no substantial reduction in affinity
Compound: PP3-36: DPPIV degradation product of PP (LEPVYPGDNATPEQMAQYAADLRRYINMLTRPRY-NH2; ends and bridges not checked; UniProt P01298 32-65, looked up, fragment)
cumulative food intake 0 to 8 hours ([1]; 150 nmol/kg SC, overnight-fasted C57/BL6 mice, n = 7, mean ± SEM): 1.71 ± 0.29 g

IC50 (mouse Y4 receptor; membranes of HEK293 cells overexpressing mouse Y4 receptor, competition with 125I-PP (100 pM), 90 min, 4°C, mean ± SEM of three to five separate experiments, read-out: IC50 (half maximal inhibitory concentration), Y4 receptor binding affinity): 0.35 ± 0.05 nM | level at time molar at 0.75 h (in vivo; male, C57BL/6, mouse, 150 nmol/kg, plasma level of PP-Ala0 at 45 minutes, alone): 4.92 ± 0.48 nM | level at time molar at 1.5 h (in vivo; male, C57BL/6, mouse, 150 nmol/kg, plasma level of PP-Ala0 at 90 minutes, alone): 1.81 ± 0.319 nM | decrease of plasma level (peptide cleared) between 45 and 90 minutes after injection (in vivo; mouse): 60%
Compound: CC[C@H](C)[C@H](NC(=O)[C@H](Cc1ccc(O)cc1)NC(=O)[C@H](CCCNC(=N)N)NC(=O)[C@H](CCCNC(=N)N)NC(=O)[C@H](CC(C)C)NC(=O)[C@H](CC(=O)O)NC(=O)[C@H](C)NC(=O)[C@H](C)NC(=O)[C@H](Cc1ccc(O)cc1)NC(=O)[C@H](CCC(N)=O)NC(=O)[C@H](C)NC(=O)[C@H](CCSC)NC(=O)[C@H](CCC(N)=O)NC(=O)[C@H](CCC(=O)O)NC(=O)[C@@H]1CCCN1C(=O)[C@@H](NC(=O)[C@H](C)NC(=O)[C@H](CC(N)=O)NC(=O)[C@H](CC(=O)O)NC(=O)CNC(=O)[C@@H]1CCCN1C(=O)[C@H](Cc1ccc(O)cc1)NC(=O)[C@@H](NC(=O)[C@@H]1CCCN1C(=O)[C@H](CCC(=O)O)NC(=O)[C@H](CC(C)C)NC(=O)[C@@H]1CCCN1C(=O)[C@H](C)NC(=O)[C@H](C)N)C(C)C)[C@@H](C)O)C(=O)N[C@@H](CC(N)=O)C(=O)N[C@@H](CCSC)C(=O)N[C@@H](CC(C)C)C(=O)N[C@H](C(=O)N[C@@H](CCCNC(=N)N)C(=O)N1CCC[C@H]1C(=O)N[C@@H](CCCNC(=N)N)C(=O)N[C@@H](Cc1ccc(O)cc1)C(N)=O)[C@@H](C)O [PP-Ala0]
inhibition of food intake over 24 hours vs saline [1, 2]: statistically significant inhibition of food intake
